What all share (experiment): inhibition of tumour cell growth, NCI panel, 48 h
Experiment [1] relates to SNB-19 CNS.
In experiment [2] the test system is HCT-116 colon.
Experiment [3] deals with UO-31 renal.
The test system of experiment [4] is HL-60(TB) leukemia.
In experiment [5] the test system is SK-MEL-2 melanoma.
Experiment [6] deals with SN12C renal.
The test system of experiment [7] is MOLT-4 leukemia.
The subject of experiment [8] is NCI-H460 lung.
For experiment [9], the system named is DU-145 prostate.
The subject of experiment [10] is MDA-MB-435.

We go through two molecules from PubChem BioAssay (NCI).

Structures are written as SMILES. Values joined by “and” are separate entries in the source; they are usually repeats but may differ in a detail not shown here. Equal entries are not always repeated.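 48-hour exposure; five concentrations; linearly interpolated endpoints. GI50 = concentration required for 50% inhibition of growth. TGI denotes the concentration required for complete inhibition of growth.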 A value given as a limit tells only on which side of the number the result lay.

Consider `Cc1cc(-c2nc(-c3ccc(OC(F)(F)F)cc3)no2)nn1Cc1ccnc(N2CCN(C3CC3)CC2)c1`, for which the GI50 in experiment [1] was over 23.1 µM; in [2], under 0.01 µM; in experiment [3] it was 4.4 µM; in [4] it was 2.93 µM; in experiment [5], over 42.1 µM; in experiment [6], over 34.1 µM. For the same molecule, the GI50 in [7] was 3.73 µM; in [8], 4.94 µM; in experiment [9] it was over 59.4 µM; in experiment [10] it was 2.34 µM. Moreover, the TGI is over 100 µM in [1]; over 100 µM in [2]; over 100 µM in experiment [3]; over 69.2 µM in experiment [4]; over 100 µM in experiment [5]; over 100 µM in [6]. Further, the TGI in [7] is 84.8 µM; in experiment [8] it was 55.3 µM; in [9], over 100 µM; in experiment [10], over 59 µM.
As for `CC1=C(/C=C/C(C)=C/C=C/C(C)=C/C(=O)Nc2ccc(O)cc2)C(C)(C)CCC1`, the GI50 is 4.83 µM in experiment [1]; 2.05 µM in experiment [2]; 1.17 µM in experiment [3]; 0.278 µM in [4]; 4.17 µM in experiment [5]; 1.61 µM in [6]. In addition, the GI50 is 0.391 µM in experiment [7], 2.58 µM in experiment [8], 2.93 µM in [9] and 1.9 µM in experiment [10]. Further, the TGI in experiment [1] is 20.4 µM and 18.2 µM; in experiment [2] it was 4.6 µM and 15.7 µM; in [3] it was 2.57 µM and 11.6 µM; in experiment [4], 1.31 µM and 9.51 µM; in experiment [5], 13.3 µM and 17.4 µM; in experiment [6], 5.23 µM and 5.63 µM. In addition, the TGI is 2.11 µM and 5.53 µM in experiment [7]; 9.48 µM and 25.2 µM in experiment [8]; 12.1 µM and 21.4 µM in experiment [9]; 5.99 µM and 18.7 µM in experiment [10].
